# From the supplement of paper PMC10307832
# Experiments:
# Test in all cases: relative viability (nuclei count vs DMSO), 5 days (fraction); higher = more cells survive
# NPK76-II-72-1 = compound: CC1CC(=O)N(C2=CN=C(N=C2N1C3CCCC3)NC4=C(C=C(C=C4)C(=O)NC5CCN(CC5)C)OC)C [NPK76-II-72-1]
# In short: (§1)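 Lung cancer cell lines in 1536-well plates were kept overnight at 37 °C, then pinned with five library-drug doses (not always all listed) spaced by √10 on vehicle-anchored plates. After 5 days without medium change, cells were fixed, permeabilised and Hoechst-stained in one step, imaged at 4×, and nuclei were counted with MetaXpress. Viability is treated-well nuclei divided by vehicle-well nuclei, taken as the median over plates. Plates passed only with control CV below 25% and at least one doubling.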
# BI-2536 = compound: CC[C@@H]1C(=O)N(C)c2cnc(Nc3ccc(C(=O)NC4CCN(C)CC4)cc3OC)nc2N1C1CCCC1 [BI-2536]
# In short: as §1
# NPK76-II-72-1 + OSI-027 = compound: CC1CC(=O)N(C2=CN=C(N=C2N1C3CCCC3)NC4=C(C=C(C=C4)C(=O)NC5CCN(CC5)C)OC)C [NPK76-II-72-1] + COc1cccc2cc(-c3nc([C@H]4CC[C@H](C(=O)O)CC4)n4ncnc(N)c34)[nH]c12 [OSI-027] (partner 0.5 µM)
# In short: (§2)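 For relative viability, nuclei counts in treated wells were divided by those in vehicle wells. Lung cancer cell lines had been pin-tool dosed in 1536-well plates the day after seeding and cultured for 5 days, then fixed and stained in one step (final 0.05% Triton X-100, 1% formaldehyde, 1 ug/ml Hoechst) and imaged at 4×. Doses were one drug alone or a fixed anchor-drug dose plus five library-drug doses (not always all listed) in √10 steps, and values are duplicate-plate medians.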
# BI-2536 + Pemetrexed = compound: CC[C@@H]1C(=O)N(C)c2cnc(Nc3ccc(C(=O)NC4CCN(C)CC4)cc3OC)nc2N1C1CCCC1 [BI-2536] + Nc1nc2[nH]cc(CCc3ccc(C(=O)N[C@@H](CCC(=O)O)C(=O)O)cc3)c2c(=O)[nH]1 [Pemetrexed] (partner 0.2 µM)
# In short: as §2
Cell Line,relative viability (NPK76-II-72-1; 0.01 µM),relative viability (NPK76-II-72-1; 0.03162 µM),relative viability (NPK76-II-72-1; 0.1 µM),relative viability (NPK76-II-72-1; 0.3162 µM),relative viability (NPK76-II-72-1; 1 µM),relative viability (BI-2536; 0.01 µM),relative viability (BI-2536; 0.03162 µM),relative viability (BI-2536; 0.1 µM),relative viability (BI-2536; 0.3162 µM),relative viability (BI-2536; 1 µM),relative viability (NPK76-II-72-1 + OSI-027; first compound 0.01 µM),relative viability (NPK76-II-72-1 + OSI-027; first compound 0.03162 µM),relative viability (NPK76-II-72-1 + OSI-027; first compound 0.1 µM),relative viability (NPK76-II-72-1 + OSI-027; first compound 0.3162 µM),relative viability (NPK76-II-72-1 + OSI-027; first compound 1 µM),relative viability (BI-2536 + Pemetrexed; first compound 0.01 µM),relative viability (BI-2536 + Pemetrexed; first compound 0.03162 µM),relative viability (BI-2536 + Pemetrexed; first compound 0.1 µM),relative viability (BI-2536 + Pemetrexed; first compound 0.3162 µM),relative viability (BI-2536 + Pemetrexed; first compound 1 µM)
NCI-H322M,0.908,0.997,1.01,0.999,1.01,0.99,0.889,0.725,0.497,0.298,0.558,0.593,0.534,0.56,0.672,0.607,0.542,0.639,0.454,0.363
NCI-H358,0.9,0.976,1.01,–,1.05,0.981,0.744,0.204,0.118,0.136,0.703,0.812,1,–,0.916,0.191,0.178,0.194,0.0986,0.102
NCI-H441,1.04,1.12,1.03,0.914,1.04,0.874,0.503,0.281,0.191,0.224,0.596,0.73,0.561,0.579,0.788,0.287,0.242,0.195,0.148,0.13
NCI-H460,0.98,1.04,1.02,0.983,0.992,1.05,1.03,0.552,0.0431,0.0258,0.706,0.79,0.75,0.628,0.775,0.0637,0.0517,0.0606,0.0204,0.0163
NCI-H520,0.869,1.03,0.991,1.03,0.947,0.902,0.737,0.61,0.238,0.225,0.358,0.265,0.238,0.257,0.305,0.666,0.32,0.204,0.179,0.189
NCI-H522,0.922,0.821,0.892,0.929,1.1,0.862,0.969,0.639,0.374,0.332,0.72,0.969,0.681,0.623,0.846,1.1,0.977,1.03,0.342,0.288
NCI-H596,0.99,0.97,1.02,1.02,1.01,0.963,1.11,0.747,0.402,0.286,0.873,0.666,0.748,0.691,0.67,0.528,0.491,0.487,0.277,0.29
NCI-H647,0.886,0.971,1.01,1.03,1.06,0.925,0.874,0.161,0.0642,0.0923,0.618,0.626,0.526,0.578,0.627,0.179,0.148,0.113,0.0907,0.0929
NCI-H650,0.971,0.946,0.927,0.734,1.01,0.819,0.821,0.589,0.198,0.131,0.512,0.565,0.515,0.49,0.623,0.912,1.11,0.551,0.196,0.139
NCI-H661,0.966,1.01,0.97,0.794,1.01,1.02,0.95,0.503,0.327,0.334,0.667,0.772,0.746,0.588,0.742,0.936,0.61,0.449,0.293,0.289
NCI-H838,0.912,1.03,0.954,0.959,1.02,0.99,0.946,0.826,0.164,0.162,0.323,0.363,0.385,0.395,0.442,0.241,0.239,0.183,0.12,0.119
NCI-H1355,0.933,0.976,0.987,0.92,1.02,1.01,0.958,0.638,0.174,0.163,0.332,0.421,0.397,0.384,0.489,1.04,1,0.899,0.211,0.174
NCI-H1395,0.893,0.906,0.953,0.955,0.993,0.844,0.817,0.435,0.337,0.34,0.633,0.617,0.677,0.62,0.695,0.73,0.643,0.34,0.323,0.402
NCI-H1437,0.981,0.972,0.952,0.964,1.01,0.981,0.911,0.804,0.184,0.174,0.862,0.877,0.871,0.843,0.995,0.321,0.288,0.267,0.227,0.212
NCI-H1563,0.949,0.978,1,0.94,0.982,0.985,1.16,0.924,0.733,0.573,0.698,0.804,0.739,0.749,0.778,0.736,0.789,0.744,0.413,0.473
NCI-H1648,0.861,0.943,0.537,0.719,0.773,0.98,0.826,0.63,0.301,0.267,0.239,0.244,–,–,0.26,0.878,0.511,0.41,0.293,0.265

Cell Line,relative viability (NPK76-II-72-1; 0.01 µM),relative viability (NPK76-II-72-1; 0.03162 µM),relative viability (NPK76-II-72-1; 0.1 µM),relative viability (NPK76-II-72-1; 0.3162 µM),relative viability (NPK76-II-72-1; 1 µM),relative viability (BI-2536; 0.01 µM),relative viability (BI-2536; 0.03162 µM),relative viability (BI-2536; 0.1 µM),relative viability (BI-2536; 0.3162 µM),relative viability (BI-2536; 1 µM),relative viability (NPK76-II-72-1 + OSI-027; first compound 0.01 µM),relative viability (NPK76-II-72-1 + OSI-027; first compound 0.03162 µM),relative viability (NPK76-II-72-1 + OSI-027; first compound 0.1 µM),relative viability (NPK76-II-72-1 + OSI-027; first compound 0.3162 µM),relative viability (NPK76-II-72-1 + OSI-027; first compound 1 µM),relative viability (BI-2536 + Pemetrexed; first compound 0.01 µM),relative viability (BI-2536 + Pemetrexed; first compound 0.03162 µM),relative viability (BI-2536 + Pemetrexed; first compound 0.1 µM),relative viability (BI-2536 + Pemetrexed; first compound 0.3162 µM),relative viability (BI-2536 + Pemetrexed; first compound 1 µM)
NCI-H1650,0.86,0.993,0.929,0.891,0.996,0.889,0.801,0.219,0.14,0.143,0.609,0.716,0.576,0.414,0.738,0.383,0.297,0.288,0.166,0.136
NCI-H1651,0.953,0.939,0.925,0.979,1.02,0.961,0.947,0.915,0.3,0.109,0.676,0.743,0.677,0.652,0.799,0.613,0.583,0.511,0.139,0.0892
NCI-H1666,0.957,0.992,0.959,0.845,1.11,0.945,0.959,0.9,0.466,0.377,0.802,0.871,0.82,0.777,0.975,0.822,0.881,0.831,0.543,0.57
NCI-H1734,0.926,1.03,1,0.967,1.1,1.01,0.725,0.234,0.199,0.211,0.495,0.625,0.64,0.589,0.628,0.39,0.36,0.279,0.211,0.188
NCI-H1755,0.97,0.998,1,0.979,1.02,0.994,0.974,0.695,0.332,0.291,0.763,0.776,0.749,0.717,0.768,0.456,0.371,0.295,0.359,0.291
NCI-H1792,0.874,0.895,0.906,0.857,1.04,1.03,0.851,0.416,0.168,0.114,0.701,–,0.734,0.753,0.802,0.779,0.792,0.328,0.0539,0.0316
NCI-H1793,0.76,1.06,1.15,0.741,0.915,0.912,0.816,0.314,0.161,0.196,0.268,0.322,0.258,0.27,0.311,0.876,1.04,0.197,0.171,0.175
NCI-H1915,0.984,1.1,1,0.882,0.996,0.977,0.932,0.544,0.0978,0.117,0.616,0.708,0.659,0.584,0.654,0.507,0.427,0.347,0.147,0.0852
NCI-H1944,0.931,0.974,0.92,0.921,1.08,0.902,1.07,0.649,0.203,0.194,0.422,0.44,0.364,0.369,0.541,0.631,0.649,0.425,0.18,0.142
NCI-H1975,0.963,0.942,0.954,0.931,1.02,0.859,0.975,0.612,0.207,0.159,0.698,0.712,0.753,0.72,0.753,0.297,0.276,0.22,0.169,0.168
NCI-H1993,0.827,0.981,0.942,0.89,1.09,1.04,0.793,0.543,0.684,0.587,0.532,0.534,0.51,0.528,0.549,0.64,0.569,0.421,0.393,0.435
NCI-H2009,0.98,1.05,1,0.933,1.1,0.959,0.918,0.579,0.198,0.209,0.659,0.671,0.596,0.547,0.778,1.07,1,0.674,0.223,0.274
NCI-H2023,0.904,1.05,1.07,0.941,0.96,0.954,0.909,0.266,0.0935,0.11,0.373,0.426,0.412,0.415,0.454,0.225,0.197,0.124,0.0926,0.0873
NCI-H2085,0.921,1.02,0.961,0.952,1,1.01,0.976,0.798,0.222,0.333,0.577,0.773,0.68,0.644,0.771,0.961,1.01,0.664,0.172,0.243
NCI-H2087,0.98,1.03,0.868,0.889,1.05,1.11,1.06,0.607,0.105,0.133,0.486,0.644,0.491,0.513,0.645,0.7,0.697,0.713,0.104,0.0907
